Reference: patent US8410151B2, “Aminomethyl benzene derivatives” (Actelion Pharmaceuticals Ltd, priority 2009, dated 2013)

What was measured:
[1] = target: recombinant human S1P1 receptor (Homo sapiens, UniProt P21453); assay: GTPγS assay to determine EC50 values; format: biochemical; conditions: 35S-GTPγS binding, membrane preparations of CHO cells expressing recombinant human S1P1 receptor
Method: GTPγS binding assays are performed in 96 well microtiter plates (Nunc, 442587) in a final volume of 200 μl, using membrane preparations of CHO cells expressing recombinant human S1P1 receptor. Assay conditions are 20 mM Hepes (Fluka, 54461), 100 mM NaCl (Fluka, 71378), 5 mM MgCl2 (Fluka, 63064), 0.1% BSA (Calbiochem, 126609), 1 μM GDP (Sigma, G-7127), 2.5% DMSO (Fluka, 41644), 50 pM ^355-GTPγS (Amersham Biosciences, SJ1320). The pH is 7.4. Test compounds are dissolved and diluted in 100% DMSO and pre-incubated at room temperature for 30 min in 150 μl of the above assay buffer, in the absence of ^355-GTPγS. After addition of 50 μl of ^355-GTPγS, the assay is incubated for 1 h at rt. The assay is terminated by transfer of the reaction mixture to a Multiscreen plate (Millipore, MAHFC1H60) using a cell harvester from Packard Biosciences, and the plates are washed with ice-cold 10 mM Na2HPO4/NaH2PO4 (70%/30%), dried, sealed at the bottom and, after addition of 25 μl MicroScint20 (Packard Biosciences, order #6013621), sealed on the top. Membrane-bound ^35S-GTPγS is measured with a TopCount from Packard Biosciences.
EC50 is the concentration of agonist inducing 50% of the maximal specific ^35S-GTPγS binding. Specific binding is determined by subtracting non-specific binding from maximal binding. Maximal binding is the amount of cpm bound to the Multiscreen plate in the presence of 10 μM of S1P. Non-specific binding is the amount of binding in the absence of an agonist in the assay.

circulating lymphocytes = assay: Assessment of in vivo efficacy: circulating lymphocytes after oral administration; set-up: species or system normotensive male Wistar rats; conditions: 3 h after oral administration of 10 mg/kg, male Wistar rats, compared to vehicle-treated group
Method: The efficacy of the compounds of formula (I) is assessed by measuring the circulating lymphocytes after oral administration of 3 to 30 mg/kg of a compound of formula (I) to normotensive male Wistar rats. The animals are housed in climate-controlled conditions with a 12 h-light/dark cycle, and have free access to normal rat chow and drinking water.
Blood is collected before and 3, 6 and 24 h after drug administration. Full blood is subjected to hematology using Advia Hematology system (Bayer Diagnostics, Zurich, Switzerland).
All data are presented as mean±SEM. Statistical analyses are performed by analysis of variance (ANOVA) using Statistica (StatSoft) and the Student-Newman-Keuls procedure for multiple comparisons. The null hypothesis is rejected when p<0.05.

Chain of recombinant human S1P1 receptor (P21453 whole entry): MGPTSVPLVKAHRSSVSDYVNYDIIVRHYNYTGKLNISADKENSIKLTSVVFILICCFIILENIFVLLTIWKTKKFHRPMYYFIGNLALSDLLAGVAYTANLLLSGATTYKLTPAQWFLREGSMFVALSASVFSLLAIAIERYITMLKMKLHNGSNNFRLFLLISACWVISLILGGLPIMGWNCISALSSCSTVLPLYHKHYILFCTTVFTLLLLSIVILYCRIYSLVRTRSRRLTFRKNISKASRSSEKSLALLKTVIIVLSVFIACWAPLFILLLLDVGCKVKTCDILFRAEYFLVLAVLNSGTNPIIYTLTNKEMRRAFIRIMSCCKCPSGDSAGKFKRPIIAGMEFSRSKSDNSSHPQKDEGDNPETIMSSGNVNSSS

Compound	EC50 [1]	Lymphocyte counts (circulating lymphocytes)
CCc1cc(-c2noc(-c3cc(C)cc(CN(C)CC)c3)n2)cc(C)c1OC[C@@H](O)CNC(=O)CO [Example 16, N—{(S)-3-[2-ethyl-4-(5-{3-[(ethyl-methyl-amino)-methyl]-5-methyl-phenyl}-[1,2,4]oxadiazol-3-yl)-6-methyl-phenoxy]-2-hydroxy-propyl}-2-hydroxy-acetamide]	2.7 nM	−62.1%
CCCCN(C)Cc1cc(C)cc(-c2nc(-c3cc(C)c(OC[C@@H](O)CNC(=O)CO)c(CC)c3)no2)c1 [Example 18, N—{(S)-3-[4-(5-{3-[(butyl-methyl-amino)-methyl]-5-methyl-phenyl}-[1,2,4]oxadiazol-3-yl)-2-ethyl-6-methyl-phenoxy]-2-hydroxy-propyl}-2-hydroxy-acetamide]	3.3 nM	−63.0%
CCc1cc(-c2noc(-c3cc(C)cc(CN4CCCC4)c3)n2)cc(C)c1OC[C@@H](O)CNC(=O)CO [Example 22, N—((S)-3-{2-ethyl-6-methyl-4-[5-(3-methyl-5-pyrrolidin-1-ylmethyl-phenyl)-[1,2,4]oxadiazol-3-yl]-phenoxy}-2-hydroxy-propyl)-2-hydroxy-acetamide]	7 nM	−61.0%
CCc1cc(-c2nc(-c3cc(C)c(OC[C@@H](O)CNC(=O)CO)c(CC)c3)no2)ccc1CN(C)C [Example 99, N—((S)-3-{4-[5-(4-dimethylaminomethyl-3-ethyl-phenyl)-[1,2,4]oxadiazol-3-yl]-2-ethyl-6-methyl-phenoxy}-2-hydroxy-propyl)-2-hydroxy-acetamide]	–	−61.0%
